The text below walks through data of a melting point compilation (Tetko et al.; mined from patent text by program, amines drawn as free bases though some values may be those of a salt).

Each structure is given as a SMILES string.

For the compound `Clc1ccc(Nc2ncc(Sc3ccncc3)c3ccccc23)cc1`, the melting point (as a rule, the temperature of the solid-liquid transition) fell in the range of 192 to 195 °C.

In the case of `O=C(O)c1ccncc1C(=O)c1cc(F)ccc1F`, the melting point fell in the range of 214 to 216 °C.

Compound `COC(=O)C1=C(C)NC(C)=C(C(=O)OCc2ccc(OC)cc2)C1c1ccccc1[N+](=O)[O-]` (configuration not stated) gave a melting point of 152 °C.

The compound `Cc1ccc(N2CCN(c3c(C)c(C)c4c(c3C)CC(C)(CO)O4)CC2)cc1` (configuration not stated) yielded a melting point of 152 to 155 °C.

Turning to `COC(=O)c1cccc(I)c1C(=O)NC(C)(C)CS(C)=O` (configuration not stated), the melting point was 151 to 152 °C.

Take `Cn1c(-c2ccc(OCC(=O)O)cc2)nc2c3ccccc3ccc21`: the melting point was determined as 227 °C.

Turning to `O=C(O)CCC(=O)OCc1ccc(-c2nn(Cc3ccccc3)c3cc(F)ccc23)o1`, the melting point lay in the range of 120 to 122 °C.

As for `COc1ccc(Cc2ccc(C(=O)N(C3CCCC3)C3CCCC3)cc2)cc1OC`, the melting point was in the range of 138 to 142 °C.

With `Cc1cc(Oc2ccc([N+](=O)[O-])c(N(C)C(=O)OC(C)(C)C)c2)cc(C)c1NC(=O)OC(C)(C)C`, the melting point lay in the range of 154 to 156 °C.

In the case of `COC(=O)c1ccc(CN(C(C)C)S(=O)(=O)c2ccc(F)cc2)cc1`, the melting point was 118 to 120 °C.

In turn, `Cc1cc(C2=NN(C(=O)N[C@H](C)c3ccccc3)[C@H](C)Cc3cc4c(cc32)OCO4)ccc1[N+](=O)[O-]` returned a melting point of 202 to 205 °C.

Consider `CCCCCCCCCCCCCC1CC(=O)NCCCNCCCCN1` (configuration not stated), for which the melting point fell in the range of 72 to 73 °C.

As for `O=C1c2ccccc2CCc2cccnc21`, the melting point was in the range of 118 to 120 °C.

`CCCCn1c2ccc(C)cc2c(=O)c2c1cnn2C`: the melting point stood at 262 °C.

Turning to `N#CC(C#N)=C(NCC(=O)O)Nc1cc(Cl)cc(Cl)c1`, the melting point came out at 103 °C.

Consider `Cc1ccc(C)n1-c1cc(F)c(C2(O)CCSCC2)c(F)c1`, for which the melting point was in the range of 125 to 126 °C.

Compound `CN1CCN=C1C(C#N)=NO` gave a melting point of 216 °C.

Compound `CCCCCCCCC1C=CC(Cc2ccc(C(=O)O)o2)=C2N=C3CCCCC3=C21` (configuration not stated) showed a melting point of 152 to 155 °C.

In turn, `O=C(O)CCc1conc1-c1ccc(F)c(Br)c1` showed a melting point of 151 to 152 °C.

For `N#Cc1c(N2CCN(C(=O)c3cccs3)CC2)c2cc(Cl)cnc2n(CC(=O)c2ccccc2)c1=O`, the melting point is 316 °C.

`CC(C)(C)c1ccc(CCNc2ncnc3ccncc23)cc1` returned a melting point of 157 to 158 °C.

`Cc1cc(SCCc2cccc3sc(-c4ccc(C(F)(F)F)cc4)nc23)ccc1OCC(=O)O` returned a melting point of 97 to 100 °C.

In turn, `COc1ccc(C(C#Cc2ccccc2)Cc2nc(C)co2)cc1OC1CCCC1` (racemic) had a melting point of 56 to 57 °C.

Take `C[C@H](N)Cn1ncc2ccc3oc(C(N)=O)nc3c21`: the melting point is 60 to 65 °C.

Compound `CC(C)c1c(CO)c(-c2ccc(F)cc2)n2ccccc12` gave a melting point of 94 to 95 °C.

`COc1cc2ncnc(Nc3ccc(OCc4ccccn4)c(C)c3)c2cc1O` registered a melting point of 234 to 235 °C.

The compound `COC(=O)N1CC[C@H](NC(C)=O)C[C@H]1Cc1ccc(Cl)cc1` (relative stereo) showed a melting point of 169 to 170 °C.

Take `Cn1c(-c2ccc(C(N)=O)cc2)cc2c(N3CCCC3)nc(N3CCCC3)nc21`: the melting point is 175 to 180 °C.

The compound `OCc1c(F)ccc(-c2ccc3nc(-c4ccc(Cl)cc4)cn3c2)c1F` had a melting point of 214 to 216 °C.

With `FC(F)(F)c1ccc(-c2cc(C3CC3)cc(Cl)n2)cc1`, the melting point lay within 89 to 93 °C.

`COC(=O)Cc1c(OC)ncnc1Oc1cccc(C(C)=O)c1` gave a melting point of 65 to 67 °C.

`O=c1c(OC(F)F)cn(-c2ccccc2F)nc1-c1ccnn1-c1ccccc1` had a melting point of 109 to 114 °C.

`O=C(NC(Cc1ccc(OCc2ccccc2)cc1)C(=O)O)c1cn2cc(-c3ccc(Cl)cc3)cnc2n1` (configuration not stated) came in with a melting point of 252 to 253 °C.

`CN1CC(=O)Nc2ccc(-c3cccc([N+](=O)[O-])c3)cc21`: the melting point fell in the range of 237 to 243 °C.

On to `COc1ccc(C(=O)c2ccc([N+](=O)[O-])c(CO)c2)cc1`, for which the melting point turned out to be 116 °C.

Consider `COC(=O)c1ccc(=O)n(N)c1`, for which the melting point lay in the range of 136 to 137 °C.

Regarding `CCCCCCCCCC(Oc1ccc(C2=CCCCCC2)cc1)C(=O)O` (configuration not stated), the melting point fell in the range of 79 to 81 °C.

On to `CCOC(=O)N1CCC(=C2c3ccc(Cl)cc3OCc3cc(Br)cnc32)CC1`, for which the melting point lay within 148 to 149 °C.

As to `OCc1cccc(C=CC2N=Cc3cc(Cl)ccc3S2)c1` (configuration not stated), the melting point lay in the range of 143 to 145 °C.

For `CC(C)N(Cc1ccc2cc(NC(=O)N3CCC(c4ccc(Cl)cc4)CC3)ccc2n1)C(C)C`, the melting point fell in the range of 201 to 203 °C.

With `CCOP(=O)(CCc1cc(OCc2ccc(OCc3nc(-c4ccco4)oc3C)c(OC)c2)nn1-c1ccccc1)OCC`, the melting point was in the range of 76 to 77 °C.

With `CCN(CC)CCNC(=O)c1[nH]c(-c2ccc(Cl)cc2)c2ccccc12`, the melting point is 51 to 54 °C.

`CCN(COC)c1cc(-c2ccnc(Nc3cccc(Cl)c3)n2)ccn1` yielded a melting point of 114 to 115 °C.

Consider `CCC12CCC3c4ccc(OC)cc4CCC3C1CCC2O` (configuration not stated), for which the melting point fell in the range of 126 to 130 °C.

`Clc1ccc(C(OCCN2CCOCC2)(c2ccc(Cl)cc2)c2ccc(Cl)cc2)cc1` displayed a melting point of 151 to 153 °C.

In turn, `Cn1c(=O)c2c(nc(N3CCC(NC(=O)OC(C)(C)C)C3)n2Cc2ccccc2Br)n(C)c1=O` (configuration not stated) gave a melting point of 104 to 106 °C.

`CCC(=O)Nc1cccc(-c2ccc3nnc(C)n3n2)c1` came in with a melting point of 265 to 268 °C.

For the compound `Cn1ncc(C(=O)N2CCOCC2)c1C(=O)Nc1ccc2nc(-c3ccccc3)nn2c1`, the melting point fell in the range of 183 to 185 °C.

On to `CCOCC1OC(n2c(Cl)nc3cc(Cl)c(Cl)cc32)C(O)C1O` (configuration not stated), for which the melting point was in the range of 88 to 90 °C.

For `O=C(c1ccc(F)c(F)c1)N1CCC[C@H](c2nc(-c3ccccn3)no2)C1`, the melting point was 135 to 137 °C.

`Cc1cccc(C)c1NC(=O)N(Cc1ccccc1)CC1(c2ccccc2)CCCC1` had a melting point of 200 to 202 °C.

In turn, `CC(C)(O)c1ccc(-c2cnc3[nH]c(=O)n(CC4CCOCC4)c3n2)cc1` yielded a melting point of 212 to 214 °C.

Compound `O=C(NS(=O)(=O)c1ccc(O)cc1)c1ccc(Cl)cc1Cl` showed a melting point of 155 to 157 °C.

With `COc1cc2c(cc1OC)CN(CC(O)COc1ccc(N)cc1)CC2` (configuration not stated), the melting point was determined as 106 °C.

Compound `COc1c(-c2ccc3cc(NS(C)(=O)=O)ccc3c2)cc(N2CCCNC2=O)cc1C(C)(C)C` registered a melting point above 300 °C.

In the case of `Cc1c(Cc2ccc(F)cc2)c(=O)oc2cc(OC(=O)N(C)c3ccccc3)ccc12`, the melting point fell in the range of 185 to 186 °C.

Regarding `CCN1CN(c2ccc(Cl)cc2)c2ncccc2C1=O`, the melting point lay within 100 to 101 °C.

`N#CC(=NOCF)C(=N)NCl` gave a melting point of 97 to 98 °C.

Consider `COc1ccc(N2CCN(c3ccc(-n4cnn(C)c4=O)cc3)CC2)cc1`, for which the melting point stood at 246 °C.

With `COc1ccc(C(=O)C2CCN(C(C)=O)CC2)c(O)c1`, the melting point is 138 to 140 °C.

For the compound `CC1CCC(=Nc2ccccc2)N1Cc1c[nH]c2ccccc12` (configuration not stated), the melting point lay within 88 to 92 °C.

`COC(=O)c1c(F)cc(OCCNC(=O)C2Cc3ccccc3N2S(=O)(=O)c2ccc(-c3ccc(F)cc3)cc2)cc1F` (configuration not stated) had a melting point of 83 °C.

For the compound `COc1cc(N)c(Cl)cc1C(=O)NN1CCN(C)CC1`, the melting point was found to be 220 °C.

Compound `Nc1ncccc1OCc1cc2c(cc1Cl)OCO2` came in with a melting point of 100 to 104 °C.

On to `O=C(NCc1c(F)cccc1F)c1[nH]c2ccc(Cl)cc2c1S(=O)(=O)c1ccccc1`, for which the melting point is 274 to 280 °C.

Compound `CCOC(=O)c1ccc(COCc2csc3nc(C(=O)NCc4cccc(N(C)C(=O)C(F)(F)F)c4)[nH]c(=O)c23)cc1` returned a melting point of 208 to 209 °C.

As to `O=c1[nH]c2c(I)c(Br)c(Br)c(I)c2[nH]c1=O`, the melting point is above 350 °C.

In turn, `CONS(=O)(=O)c1ccc(C)cc1` gave a melting point of 116 to 117 °C.

The compound `ClC(Cl)(Cl)c1cccc2nnsc12` showed a melting point of 67 to 69 °C.

As to `CCCOc1ccc(F)cc1C1=NC(=O)C2=NC=NC2=N1`, the melting point was found to be 238 °C.

`CC(C)[C@H](NC(=O)OCc1csc(N2CCOCC2)n1)C(=O)N[C@@H](Cc1ccccc1)[C@@H](O)C[C@H](Cc1ccccc1)NC(=O)OCc1cncs1` yielded a melting point of 146 to 148 °C.

Compound `Clc1ccc(Nc2nnc(OCc3ccncc3)c3ccccc23)cc1` returned a melting point of 139 to 141 °C.

Compound `COc1cc(-c2ccco2)c2oc(-c3ccc(OC)c(F)c3)nc2c1` yielded a melting point of 155 °C.

Compound `COc1ncnc2c(NC3OC(CO)C(O)C3O)ncnc12` (configuration not stated) displayed a melting point of 183 °C.

`O=C(N[C@H](Cc1cccc(OCC(F)(F)F)c1)[C@@H](O)c1ccc(F)cc1)c1ccc(F)c2ccccc12` (racemic): the melting point was 192 to 193 °C.

With `OCC1OC(n2cnc3c(NC4CC=CCC4c4cccs4)ncnc32)C(O)C1O` (configuration not stated), the melting point was in the range of 105 to 110 °C.

For the compound `Nc1c(-c2ccc(-c3ccccc3F)cc2)nc2ccc(Cl)cc2c1C(=O)O`, the melting point was in the range of 247 to 249 °C.

As for `CCOC(=O)N(C)C1CCc2c([nH]c3ccccc23)C1` (configuration not stated), the melting point was 167 to 168 °C.

On to `CC1(C)CCC(C)(C)c2cc(-c3cc4ccc(C(=O)O)cc4[nH]3)ccc21`, for which the melting point turned out to be 215 °C.

For the compound `O=C1CC(C(F)(F)F)CC(=O)N1c1cc(OCSc2ccccc2)c(Cl)cc1F`, the melting point is 108 to 110 °C.

As for `O=C1N(Cc2ccccn2)c2ccccc2C12COc1cc3c(cc12)OCCCO3` (configuration not stated), the melting point lay within 122 to 123 °C.

The compound `COc1cccc(CCNCCc2c[nH]cn2)c1` displayed a melting point of 98 to 100 °C.

Turning to `CC(C)C(=O)N1N=Cc2ccccc2C1C#N` (configuration not stated), the melting point lay within 144 to 146 °C.

`Clc1ccc(-c2ccc(Br)cc2)cc1`: the melting point lay in the range of 81 to 82 °C.

`OCCOc1ccc(O)c(Cl)c1` came in with a melting point of 76 to 82 °C.

On to `NC(=O)OCc1ccc(CNC(=O)[C@@H](CCCNC(N)=N[N+](=O)[O-])NC(=O)C(c2ccccc2)c2ccccc2)cc1`, for which the melting point is 130 to 132 °C.

As to `O=C(N1CCOCC1)C12CC(CN1)C2`, the melting point was in the range of 97.5 to 98 °C.
